The test concerns CNV lesions. In words: NHP laser-induced CNV, fluorescein angiography lesion grading. In kind it is in vivo, Chlorocebus sabaeus. Conditions: single ITV 1 mg Aflibercept.

As for “aflibercept: current standard of care anti-VEGF, single ITV administration of 1 mg”, the “incidence of grade IV lesions, Myr-EBIN vs aflibercept groups” value is reported as “no significant difference”.

These data come from article PMC10591057 (Cell Reports Medicine, 2023).
